According to patent US8557836B2 (priority 2008, dated 2013):

Molecular target: full length Udorn AM2 protein (Influenza A virus, UniProt P0DOF5)
Assay: cell-based
Assay type: cell-based, influenza virus A/Udorn/72
Conditions: for remaining activity at 100 µM: pH 5.5, read-out: AM2 Remaining Activity After 100 μM inhibition; for inhibition of AM2 (in words): 100 μM

Sequence of full length Udorn AM2 protein (P0DOF5 whole entry, looked up): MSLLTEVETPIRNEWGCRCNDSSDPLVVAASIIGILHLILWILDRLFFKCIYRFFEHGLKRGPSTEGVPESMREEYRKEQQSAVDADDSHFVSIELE

Compound | remaining activity at 100 µM | inhibition of AM2 (in words)
C1CCC2(CC1)CCN(C1=NCCN1)CC2 [BL-1743, 3-(4,5-dihydro-1H-imidazol-2-yl)-3-azaspiro[5,5]undecane hydroiodide, reference compound] | 25% | 
C1CCC2(CC1)CCN(CC1CC1)CC2 [Compound 1, 3-(cyclopropylmethyl)-3-azaspiro[5,5]undecane] | 100% | 
C1CCC2(CC1)CCN(CC1CCCC1)CC2 [Compound 2, 3-(cyclopentylmethyl)-3-azaspiro[5,5]undecane] | 100% | 
c1cc(CN2CCC3(CCCCC3)CC2)cs1 [Compound 3, 3-(thiophen-3-ylmethyl)-3-azaspiro[5,5]undecane] | 90% | 
Cn1cc(CN2CCC3(CCCCC3)CC2)cn1 [Compound 4, 3-((1-methyl-1H-pyrazol-4-yl)methyl)-3-azaspiro[5,5]undecane] | 100% | 
Cc1cc(CN2CCC3(CCCCC3)CC2)no1 [Compound 5, 3-(3-azaspiro[5,5]undecan-3-ylmethyl)-5-methylisoxazole] | 100% | 
c1ccc(CN2CCC3(CCCCC3)CC2)nc1 [Compound 6, 3-(pyridin-2-ylmethyl)-3-azaspiro[5,5]undecane] | 100% | 
c1ncc(CN2CCC3(CCCCC3)CC2)[nH]1 [Compound 7, 3-((1H-imidazol-4-yl)methyl)-3-azaspiro[5.5]undecane] | 70% | moderate inhibition
c1c[nH]c(CN2CCC3(CCCCC3)CC2)n1 [Compound 8, 3-((1H-imidazol-2-yl)methyl)-3-azaspiro[5.5]undecane] | 49% | moderate inhibition
CC1(C)CCNCC1 [Compound 19, 4,4-dimethylpiperidinium chloride] | 75% | 
CCC1(C)CCNCC1 [Compound 20, 4-ethyl-4-methylpiperidinium chloride] | 87% | 
